Where two headings read alike, the source gives them in different places.

These results are taken from patent publication US20200316038A1, “METHODS AND COMPOSITIONS FOR TREATING UREA CYCLE DISORDERS, IN PARTICULAR OTC DEFICIENCY” (CAMP4 THERAPEUTICS CORPORATION, priority 2017, published 2020).

One assay deals with ASL. The assay can be described thus: RNA-seq, ASL expression in compound-treated primary human hepatocytes. Type of assay: cell-based. Particulars: RNA-seq, primary human hepatocytes, compounds that significantly increase ASL expression.
A further assay relates to ARG1. The assay can be described thus: RNA-seq, ARG1 expression in compound-treated primary human hepatocytes. Type of assay: cell-based. To be noted: RNA-seq, primary human hepatocytes, compounds that significantly increase ARG1 expression.
A further assay concerns CPS1. The assay can be described thus: RNA-seq, CPS1 expression in compound-treated primary human hepatocytes. Type of assay: cell-based.
Assay [1] relates to multiple urea cycle-related genes. The experiment in a line: RNA-seq, compounds that modulate multiple urea cycle-related genes. Type of assay: cell-based. To be noted: primary human hepatocytes; for Up-regulated Genes: urea cycle-related genes significantly increased by the compound.
Assay [2] relates to OTC. The assay can be described thus: RNA-seq, OTC expression in compound-treated primary human hepatocytes. Type of assay: cell-based.
Assay [3] relates to OTC. The experiment in a line: siRNA transfection of primary human hepatocytes, OTC qPCR. Type of assay: cell-based. Particulars: siRNA 10 nM, 48hrs, vs control non-targeting siRNA. The protocol: Primary human hepatocytes were reversed transfected with 6pmol siRNA using RNAiMAX Reagent (ThermoFisher Cat No13778030) in 24 well format, 1 ul per well (for a final cone of 10 nM). The following morning, the medium was removed and replaced with Modified Maintenance Medium (see above) for an additional 24 hrs. The entire treatment lasted 48hrs, at which point the medium was removed and replaced with RLT Buffer for RNA extraction (Qiagen RNeasy 96 QIAcube HT Kit Cat#74171). siRNAs were obtained from Dharmacon and are a pool of four siRNA duplex all designed to target distinct sites within the specific gene of interest (known as “SMARTpool”). They were tested against the control non-targeting siRNA D-001206-13-05.
Isolated RNA was processed for cDNA synthesis and qPCR as described above. Taqman assay used for OTC measurement: Hs00166892_m1
In general terms: In qPCR the cycle at which signal appears reflects the starting amount.

The test system of another assay is SLC25A15. The experiment in a line: RNA-seq, SLC25A15 expression in compound-treated primary human hepatocytes. To be noted: compounds that significantly increase SLC25A15 expression. The assay is classed as cell-based.
The subject of the next assay is ASS1. The assay can be described thus: RNA-seq, ASS1 expression in compound-treated primary human hepatocytes. The assay is classed as cell-based.
Assay [4] relates to OTC. The assay can be described thus: OTC expression modulated by compounds (OTC/Geo Mean of HKs, DMSO = 1). To be noted: OTC expression; compound at 10 uM final concentration. The assay is classed as cell-based, human.
Protocol: Analysis of the fold changes in expression as measured by qRT-PCR were performed using the technique below. The control was DMSO, and the treatment was the selected compound (CPD). The internal control was GAPDH or B-Actin, and the gene of interest is the target. First, the averages of the 4 conditions were calculated for normalization: DMSO:GAPDH, DMSO:Target, CPD: GAPDH, and CPD:Target. Next, the ΔCT of both control and treatment were calculated to normalize to internal control (GAPDH) using (DMSO:Target)−(DMSO:GAPDH)=ΔCT control and (CPD:Target)−(CPD: GAPDH)=ΔCT experimental. Then, the ΔΔCT was calculated by ΔCT experimental−ΔCT control.
The target of another assay is FLT3 (Homo sapiens, UniProt P36888). Particulars: cited from earlier work.
A further assay concerns the target c-Kit (Homo sapiens, UniProt P10721). Particulars: cited from earlier work.
The test system of the next assay is PDGFRα. To be noted: PDGFRα; cited from earlier work.
A further assay concerns HSP90. Particulars: cited from earlier work.
A further assay relates to calcium channel. To be noted: calcium channel blocker; cited from earlier work.
The mark [5] stands for this setting: RNA-seq, primary human hepatocytes, compounds that significantly increase NAGS expression.

Sequence of FLT3 (P36888 27-993, species assumed): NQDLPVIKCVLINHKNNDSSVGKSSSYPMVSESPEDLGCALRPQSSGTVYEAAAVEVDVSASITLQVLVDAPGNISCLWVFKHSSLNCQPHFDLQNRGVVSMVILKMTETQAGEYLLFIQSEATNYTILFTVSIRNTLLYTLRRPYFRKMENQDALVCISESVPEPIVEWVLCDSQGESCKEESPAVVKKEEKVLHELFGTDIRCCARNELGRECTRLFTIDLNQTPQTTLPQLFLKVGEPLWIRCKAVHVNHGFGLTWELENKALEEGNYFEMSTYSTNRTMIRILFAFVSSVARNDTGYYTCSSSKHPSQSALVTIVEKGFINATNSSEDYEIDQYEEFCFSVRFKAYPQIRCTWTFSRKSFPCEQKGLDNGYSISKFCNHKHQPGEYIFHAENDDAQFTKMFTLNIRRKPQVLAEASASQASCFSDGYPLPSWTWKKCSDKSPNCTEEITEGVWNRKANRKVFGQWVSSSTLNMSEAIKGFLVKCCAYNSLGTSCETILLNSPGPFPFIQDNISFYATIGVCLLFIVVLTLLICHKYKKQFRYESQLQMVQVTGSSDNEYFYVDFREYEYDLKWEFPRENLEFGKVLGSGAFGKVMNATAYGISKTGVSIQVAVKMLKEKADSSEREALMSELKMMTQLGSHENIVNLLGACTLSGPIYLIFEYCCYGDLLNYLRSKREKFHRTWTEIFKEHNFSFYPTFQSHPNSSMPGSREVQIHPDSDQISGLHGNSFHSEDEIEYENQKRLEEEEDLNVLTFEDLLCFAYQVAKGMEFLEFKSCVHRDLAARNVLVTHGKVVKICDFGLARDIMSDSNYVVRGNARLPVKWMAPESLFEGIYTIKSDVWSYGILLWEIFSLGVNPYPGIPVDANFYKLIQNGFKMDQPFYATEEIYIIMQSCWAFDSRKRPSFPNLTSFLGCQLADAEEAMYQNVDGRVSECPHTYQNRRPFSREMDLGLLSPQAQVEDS
Sequence of c-Kit (P10721 26-976): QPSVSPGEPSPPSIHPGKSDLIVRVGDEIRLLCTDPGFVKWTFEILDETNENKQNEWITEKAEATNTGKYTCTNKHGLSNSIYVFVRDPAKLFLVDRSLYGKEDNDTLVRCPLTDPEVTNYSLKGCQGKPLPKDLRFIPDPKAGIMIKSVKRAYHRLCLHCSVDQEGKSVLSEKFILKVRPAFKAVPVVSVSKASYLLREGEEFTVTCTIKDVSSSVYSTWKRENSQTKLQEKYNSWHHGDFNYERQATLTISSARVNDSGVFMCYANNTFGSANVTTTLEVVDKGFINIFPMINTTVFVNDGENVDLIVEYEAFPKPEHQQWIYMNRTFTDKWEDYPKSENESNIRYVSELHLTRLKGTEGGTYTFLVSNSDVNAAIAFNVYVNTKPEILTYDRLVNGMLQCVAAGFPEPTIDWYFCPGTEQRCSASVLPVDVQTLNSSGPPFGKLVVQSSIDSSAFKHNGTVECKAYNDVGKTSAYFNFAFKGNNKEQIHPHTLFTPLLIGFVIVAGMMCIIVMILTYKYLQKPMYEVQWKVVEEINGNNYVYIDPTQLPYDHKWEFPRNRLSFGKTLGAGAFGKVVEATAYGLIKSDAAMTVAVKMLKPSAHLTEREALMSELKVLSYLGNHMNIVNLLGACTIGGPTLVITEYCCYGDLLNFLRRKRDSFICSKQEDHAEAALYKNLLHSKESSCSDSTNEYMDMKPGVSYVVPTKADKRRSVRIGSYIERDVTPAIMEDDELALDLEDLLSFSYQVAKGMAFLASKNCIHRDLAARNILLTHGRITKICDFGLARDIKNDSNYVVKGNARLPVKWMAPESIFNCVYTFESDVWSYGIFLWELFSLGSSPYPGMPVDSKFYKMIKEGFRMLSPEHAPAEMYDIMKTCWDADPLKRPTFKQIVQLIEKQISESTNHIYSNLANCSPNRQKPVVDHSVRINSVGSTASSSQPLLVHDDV

Consider `Cc1cc(-c2nc(-c3ccc(OC(F)(F)F)cc3)no2)nn1Cc1ccnc(N2CCN(C3CC3)CC2)c1` [BAY 87-2243], for which, in the assay on ASL, the “ASL expression, Fold change (Log 2) vs untreated” value turned out to be 0.58 Log 2. Further, the “ARG1 expression, Fold change (Log 2) vs untreated” value in the assay with ARG1 is on record as 1.09 Log 2. In addition, in the assay on CPS1, the “Fold change (Log 2) vs untreated” value turned out to be 1.81 Log 2. In [1], the “number of urea cycle genes whose expression was significantly up-regulated” value is “three” and the “Up-regulated Genes” value was “CPS1, ASL, ARG1”.
“IGF-1: Insulin-like growth factor I; IGF-1R activator”: the “Fold change (Log 2) vs untreated” value in the assay on OTC [2] turned out to be 0.76 Log 2; in the assay with CPS1, 2.22 Log 2. Moreover, the “ARG1 expression, Fold change (Log 2) vs untreated” value in the assay with ARG1 stood at 1.89 Log 2. Moreover, the “Max fold change in OTC” value in the assay with OTC [3] is on record as 1.69. The “SLC25A15 expression, Fold change (Log 2) vs untreated” value in the assay on SLC25A15 was determined as 0.8 Log 2. The “number of urea cycle genes whose expression was significantly up-regulated” value in assay [1] is given as “four”. In assay [1], the “Up-regulated Genes” value is “CPS1, OTC, ARG1, SLC25A15”.
As for `COc1cccc2c1C(=O)c1c(O)c3c(c(O)c1C2=O)C[C@@](O)(/C(CO)=N/NC(=O)CCCCCN1C(=O)C=CC1=O)C[C@@H]3O[C@H]1C[C@H](N)[C@H](O)[C@H](C)O1` [INNO-206 (aldoxorubicin), aldoxorubicin], the “Fold change (Log 2) vs untreated” value in the assay with OTC [2] is on record as 0.87 Log 2. Besides, the “Fold change (Log 2) vs untreated” value in the assay with ASS1 turned out to be 0.58 Log 2. Besides, the “Max Value (OTC/Geo Mean of HKs; DMSO = 1)” value with OTC [4] is 2.36. In assay [1], the “number of urea cycle genes whose expression was significantly up-regulated” value was “three” and the “Up-regulated Genes” value is “NAGS, ASS1, OTC”. Further, the “NAGS expression, Fold change (Log 2) vs untreated” value in the assay with NAGS (setting [5]) is on record as 1.63 Log 2.
For orientation: IC50 means the concentration needed to halve the response being measured. Consider `S=C(NCc1ccc2c(c1)OCO2)N1CCN(c2ncnc3c2oc2ccccc23)CC1` [Amuvatinib], for which the “Fold change (Log 2) vs untreated” value with OTC [2] is on record as 1.15 Log 2; in the assay with ASS1 it was 0.69 Log 2; in the assay on CPS1, 1.46 Log 2. Moreover, in the assay on ASL, the “ASL expression, Fold change (Log 2) vs untreated” value was 0.81 Log 2. Moreover, the IC50 on FLT3 is 81 nM; at c-Kit, 10 nM; with PDGFRα it was 40 nM. In the assay with OTC [4], the “Max Value (OTC/Geo Mean of HKs; DMSO = 1)” value was determined as 3.21. Besides, the “ARG1 expression, Fold change (Log 2) vs untreated” value in the assay on ARG1 was determined as 2.5 Log 2. Also, the “number of urea cycle genes whose expression was significantly up-regulated” value in assay [1] was “five”. Besides, the “Up-regulated Genes” value in assay [1] was “CPS1, ASS1, ASL, OTC, ARG1”.
For the molecule `C[C@]12C[C@H](O)[C@H]3[C@@H](CCC4=CC(=O)CC[C@@]43C)[C@@H]1CC[C@@H]2C(=O)CO` [Corticosterone], in the assay on SLC25A15, the “SLC25A15 expression, Fold change (Log 2) vs untreated” value was found to be 0.96 Log 2.
Broadly, the EC50 is the concentration at which the effect is half-maximal. By Ki is commonly meant a dissociation constant, usually derived from enzyme kinetics or from competition with a known ligand. As for `COc1c(C)cnc(Cn2cnc3c(Cl)nc(N)nc32)c1C` [BIIB021], the “Max Value (OTC/Geo Mean of HKs; DMSO = 1)” value in the assay on OTC [4] is […]. In the assay on HSP90, the EC50 was […] and the inhibition constant (Ki) was […].
Take `CCOC(=O)C1=C(COCCN)NC(C)=C(C(=O)OC)C1c1ccccc1Cl` (stereo not drawn) [Amlodipine Besylate]: the IC50 with calcium channel is 1.9 nM. Also, in the assay on NAGS (setting [5]), the “NAGS expression, Fold change (Log 2) vs untreated” value came to 0.73 Log 2.
Consider `O=C1CCC(N2C(=O)c3ccccc3C2=O)C(=O)N1` (stereo not drawn) [Thalidomide], for which the “Fold change (Log 2) vs untreated” value with OTC [2] amounted to 1.21 Log 2. The “ASL expression, Fold change (Log 2) vs untreated” value in the assay on ASL is on record as 0.56 Log 2. Besides, in the assay on ARG1, the “ARG1 expression, Fold change (Log 2) vs untreated” value worked out at 1.16 Log 2. Moreover, in the assay on CPS1, the “Fold change (Log 2) vs untreated” value turned out to be 1.02 Log 2. Besides, in [1], the “number of urea cycle genes whose expression was significantly up-regulated” value was “five” and the “Up-regulated Genes” value was “NAGS, CPS1, ALS, OTC, ARG1”. Also, in the assay on NAGS, the “NAGS expression, Fold change (Log 2) vs untreated” value came out at 1.1 Log 2.

B1: GDF2 (BMP9): member of BMP family and the TGF-B superfamily (protein, UniProt Q9UK05 320-429, looked up)
Growth/differentiation factor …: SAGAGSHCQKTSLRVNFEDIGWDSWIIAPKEYEAYECKGGCFFPLADDVTPTKHAIVQTLVHLKFPTKVGKACCVPTKLSPISVLYKDDMGVPTLKYHYEGMSVAECGCR
As to B1, the “Fold change (Log 2) vs untreated” value was 1.34 Log 2 in the assay with ASS1 and 3.46 Log 2 with CPS1. Further, in the assay on ARG1, the “ARG1 expression, Fold change (Log 2) vs untreated” value is on record as 1.79 Log 2. Further, the “SLC25A15 expression, Fold change (Log 2) vs untreated” value with SLC25A15 was found to be 1.09 Log 2. Besides, the “number of urea cycle genes whose expression was significantly up-regulated” value in assay [1] is reported as “five”. Moreover, the “NAGS expression, Fold change (Log 2) vs untreated” value with NAGS came out at 0.63 Log 2.

B2: Wnt3a: WNT family secreted signaling protein; FRIZZLED activator (protein, UniProt P56704 19-352, looked up)
Protein Wnt-3a: SYPIWWSLAVGPQYSSLGSQPILCASIPGLVPKQLRFCRNYVEIMPSVAEGIKIGIQECQHQFRGRRWNCTTVHDSLAIFGPVLDKATRESAFVHAIASAGVAFAVTRSCAEGTAAICGCSSRHQGSPGKGWKWGGCSEDIEFGGMVSREFADARENRPDARSAMNRHNNEAGRQAIASHMHLKCKCHGLSGSCEVKTCWWSQPDFRAIGDFLKDKYDSASEMVVEKHRESRGWVETLRPRYTYFKVPTERDLVYYEASPNFCEPNPETGSFGTRDRTCNVSSHGIDGCDLLCCGRGHNARAERRREKCRCVFHWCCYVSCQECTRVYDVHTCK
As for B2, in the assay with OTC [2], the “Fold change (Log 2) vs untreated” value was 0.92 Log 2. Besides, the “ARG1 expression, Fold change (Log 2) vs untreated” value with ARG1 is given as 2.07 Log 2. In the assay with SLC25A15, the “SLC25A15 expression, Fold change (Log 2) vs untreated” value turned out to be 0.7 Log 2. Moreover, the “Fold change (Log 2) vs untreated” value in the assay with CPS1 is reported as 2.6 Log 2. Moreover, in assay [1], the “number of urea cycle genes whose expression was significantly up-regulated” value is listed as “four” and the “Up-regulated Genes” value is given as “CPS1, OTC, ARG1, SLC25A15”.
